Assay results: US10393633B2, “Sample fixation and stabilisation” (RNASSIST LTD., priority 2013, dated 2019)
Like-named read-outs stand apart in the source and are kept apart here.

Experiments:
[1] = Solid or liquid state of the mixtures at 24° C. / 100° C.; assay type: physicochemical; details: for Room temperature (24° C.) DES liquid on mixing with Choline chloride: 1:2 mol:mol proportion
RNA in rat tissue = test: RNA stabilisation in animal tissue by DES mixtures, 37° C. 18 hours, RNA yield and gel RNA quality (Example 3, Tables 1 and 2)
Experimental: To 400 μl of the following DES mixtures in a 2 ml polypropylene tube was added 5-15 mg of rat tissue (frozen tissue stock), following a 20 minute fixation step the sample was incubated at 37° C. for 18 hours prior to RNA extraction/purification using a RNeasy Micro kit (Cat. No. 74004, Qiagen, Germany). Whether the DES mixture was a solid or liquid at room temperature, the RNA yield following extraction and the RNA quality on a scale of 1-10 (with 0 indicating no stabilisation and 10 indicating no degradation, compared with the RNA quality of immediately extracted RNA from a fresh rat liver tissue sample=10).

RNA of guanidine lysate = test: RNA yields from Guanidine/Choline chloride:Trifluoroacetamide mixtures in the absence of ethanol for binding (Example 30, Table 11); set-up: species or system mouse; details: no ethanol
[2] = Table 1, solid or liquid at room temperature
[3] = 0 highly degraded to 10 highest quality, 18S/28S rRNA on agarose gel, 37° C. 18 hours

Compound | Room temperature (24° C.) DES liquid on mixing with Choline chloride [1] | also measured
CN1CCN(C)C1=O [1,3-Dimethyl-2-imidazolidone] | could not be prepared | 
c1ccc(Cn2ccnc2)cc1 [1-Benzylimidazole] | could not be prepared | 
CCN1CCCC1=O [1-Ethyl-2-pyrrol] | could not be prepared | 
O=CN1CCOCC1 [4-Formyl morpholine] | could not be prepared | 
CC(=O)CCC(C)=O [Acetonyl acetone] | could not be prepared | 
N.N.N.O=P(O)(O)O [Ammonium phosphate] |  | Formation of room temperature DES liquids by ammonium salts [1]: not capable of forming room temperature DES liquids
C[N+](C)(C)CC(=O)O [Betaine:Water (Sat'd), Betaine, reference compound] |  | Liquid at 24° C. [1, 2]: Yes; RNA Quality 0-10 (RNA in rat tissue; [3]): 0
C[N+](C)(C)CCO.[Cl-] [Choline chloride:Water (6M), Choline chloride, reference compound] |  | Liquid at 24° C. [1]: Saturated; RNA Quality 0-10 (RNA in rat tissue): 3
O=C1OCCO1 [Ethylene carbonate] | could not be prepared | 
CCn1ccnc1 [N-Ethylimidazole] | could not be prepared | 
NC(=O)C(N)=O [Oxamide] | could not be prepared | 
CC(C)(C)C(N)=O [Pivalamide] | could not be prepared | 
O=C(O)[C@@H]1CCCN1 [Proline] | could not be prepared | 
NC(=O)C(F)(F)F [Trifluoroacetamide] |  | RNA yield compared with Choline chloride:Trifluoroacetamide dissolved in Buffer RLT (1:1 wt:wt) (RNA of guanidine lysate): 15%
NC(N)=O [Water:Urea (5M), Urea, reference compound] |  | Liquid at 24° C. [1, 2]: Saturated; RNA Quality 0-10 (RNA in rat tissue; [3]): 0
